Laboratory results: ChEMBL document CHEMBL3751749, “Identification of new hit scaffolds by [sequence]-guided virtual screening” (Medchemcomm, 2015)
Active and inactive are the calls of the source. The rule behind the calls is not given here.

What was measured:
[1] = biological target: T1, Cyclin-dependent kinase 2 (Homo sapiens, UniProt P24941); assay: Binding affinity to N-terminal His-tagged human CDK2 expressed in Escherichia coli BL21-AI by STD-NMR analysis
Homo sapiens [2] = species on record: Homo sapiens; assay: Inhibition of human PKA assessed as enzyme activity using PKA peptide as substrate at 100 uM incubated for 120 mins in presence of 33-P ATP by kinase phosphorylation assay; parameters: scale not given: the % may be the effect or the level left
[3] = biological target: T2, CDK2/Cyclin A2 (Homo sapiens) (UniProt P24941+P20248); assay: Inhibition of recombinant full-length human Cdk2/cyclin A assessed as enzyme activity using histone H1 as substrate at 100 uM incubated for 120 mins in presence of 33-P ATP by kinase phosphorylation assay; type: protein-complex assay; parameters: scale not given: the % may be the effect or the level left
CDK2/Cyclin A2 = CDK2/Cyclin A2 (Homo sapiens, UniProt P24941); assay: Inhibition of recombinant full-length human Cdk2/cyclin A using histone H1 as substrate incubated for 120 mins in presence of 33-P ATP by kinase phosphorylation assay; type: protein-complex assay
[4] = biological target: T3, Cyclin-dependent kinase 2/cyclin E1 (Homo sapiens) (UniProt P24864+P24941); assay: Inhibition of recombinant full-length human Cdk2/cyclin E assessed as enzyme activity using histone H1 as substrate at 100 uM incubated for 120 mins in presence of 33-P ATP by kinase phosphorylation assay; type: protein-complex assay; parameters: scale not given: the % may be the effect or the level left
[5] = biological target: T1, Cyclin-dependent kinase 2; assay: Binding affinity to human CDK2 by isothermal titration calorimetric analysis
[6] = biological target: ALK tyrosine kinase receptor (Homo sapiens) (UniProt Q9UM73); assay: Inhibition of human ALK assessed as enzyme activity using pEY as substrate at 5 uM incubated for 120 mins in presence of 33-P ATP by kinase phosphorylation assay; parameters: scale not given: the % may be the effect or the level left
Homo sapiens [7] = species on record: Homo sapiens; assay: Inhibition of human PKA assessed as enzyme activity using PKA peptide as substrate at 5 uM incubated for 120 mins in presence of 33-P ATP by kinase phosphorylation assay; parameters: scale not given: the % may be the effect or the level left
[8] = biological target: T2, CDK2/Cyclin A2 (Homo sapiens); assay: Inhibition of recombinant full-length human Cdk2/cyclin A assessed as enzyme activity using histone H1 as substrate at 5 uM incubated for 120 mins in presence of 33-P ATP by kinase phosphorylation assay; type: protein-complex assay; parameters: scale not given: the % may be the effect or the level left
[9] = biological target: T3, Cyclin-dependent kinase 2/cyclin E1 (Homo sapiens); assay: Inhibition of recombinant full-length human Cdk2/cyclin E assessed as enzyme activity using histone H1 as substrate at 5 uM incubated for 120 mins in presence of 33-P ATP by kinase phosphorylation assay; type: protein-complex assay; parameters: scale not given: the % may be the effect or the level left

ALK tyrosine kinase receptor (Homo sapiens), sequence (Q9UM73 19-1620 limits assumed): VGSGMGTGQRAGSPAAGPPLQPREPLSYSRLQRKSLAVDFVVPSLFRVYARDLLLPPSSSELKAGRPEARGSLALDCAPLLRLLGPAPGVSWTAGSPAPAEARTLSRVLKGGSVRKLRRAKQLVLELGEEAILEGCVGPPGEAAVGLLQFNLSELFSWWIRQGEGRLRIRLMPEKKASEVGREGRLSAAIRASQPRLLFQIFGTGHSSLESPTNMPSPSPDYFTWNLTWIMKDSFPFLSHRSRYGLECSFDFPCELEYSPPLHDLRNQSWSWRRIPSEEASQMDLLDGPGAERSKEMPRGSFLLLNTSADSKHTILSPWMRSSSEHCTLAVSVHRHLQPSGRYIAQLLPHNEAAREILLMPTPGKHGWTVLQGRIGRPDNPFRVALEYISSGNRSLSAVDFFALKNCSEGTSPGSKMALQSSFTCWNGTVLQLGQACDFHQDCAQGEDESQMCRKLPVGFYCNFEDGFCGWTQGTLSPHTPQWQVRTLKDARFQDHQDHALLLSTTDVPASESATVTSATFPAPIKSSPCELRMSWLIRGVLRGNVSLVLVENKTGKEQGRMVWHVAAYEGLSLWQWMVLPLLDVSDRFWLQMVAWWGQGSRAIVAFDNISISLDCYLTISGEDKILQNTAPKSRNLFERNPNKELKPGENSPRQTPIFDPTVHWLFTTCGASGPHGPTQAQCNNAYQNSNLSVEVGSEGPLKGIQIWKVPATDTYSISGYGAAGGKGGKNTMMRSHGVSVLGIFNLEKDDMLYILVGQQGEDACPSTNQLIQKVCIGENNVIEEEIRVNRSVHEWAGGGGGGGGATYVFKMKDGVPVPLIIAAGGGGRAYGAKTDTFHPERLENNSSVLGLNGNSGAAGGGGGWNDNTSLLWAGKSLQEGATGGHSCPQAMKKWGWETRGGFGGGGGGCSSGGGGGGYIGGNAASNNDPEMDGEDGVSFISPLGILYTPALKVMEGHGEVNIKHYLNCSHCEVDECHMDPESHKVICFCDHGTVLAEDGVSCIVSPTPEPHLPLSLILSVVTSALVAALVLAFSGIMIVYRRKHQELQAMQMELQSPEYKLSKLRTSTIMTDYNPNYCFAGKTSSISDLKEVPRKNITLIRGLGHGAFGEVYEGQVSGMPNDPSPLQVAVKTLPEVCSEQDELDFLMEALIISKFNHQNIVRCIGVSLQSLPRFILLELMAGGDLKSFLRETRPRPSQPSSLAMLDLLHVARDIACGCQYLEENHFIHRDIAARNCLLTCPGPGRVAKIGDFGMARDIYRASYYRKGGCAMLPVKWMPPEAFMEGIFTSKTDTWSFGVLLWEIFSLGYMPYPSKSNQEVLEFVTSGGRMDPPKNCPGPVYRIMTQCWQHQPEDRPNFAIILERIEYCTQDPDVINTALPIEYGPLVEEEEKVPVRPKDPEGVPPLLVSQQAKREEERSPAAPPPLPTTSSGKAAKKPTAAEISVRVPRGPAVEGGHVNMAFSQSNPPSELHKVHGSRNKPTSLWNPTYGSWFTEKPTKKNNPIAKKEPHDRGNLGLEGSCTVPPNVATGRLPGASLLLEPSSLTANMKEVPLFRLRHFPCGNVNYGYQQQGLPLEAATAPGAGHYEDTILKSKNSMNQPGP

Q: Which Activity [1] does the source give for `Cc1ccc(Cn2cc(-n3c(-c4ccc(Cn5nc(C)c(Cl)c5C)o4)n[nH]c3=S)cn2)cc1` here?
A: inactive

Q: With `Cc1ccc(Cn2cc(-n3c(-c4ccc(Cn5cccn5)cc4)n[nH]c3=S)cn2)cc1` as the compound, how does the Activity [1] read?
A: inactive

Q: With `Cc1ccc(Cn2nccc2-n2c(-c3cc(C)n(C)n3)n[nH]c2=S)cc1` as the compound, how does the Activity (Homo sapiens [2]) read?
A: 99%

Q: What about the Activity [1] of the same compound?
A: Active

Q: And the Activity [3]?
A: 69%

Q: And the IC50 (CDK2/Cyclin A2)?
A: 1000 µM

Q: And the Activity [4]?
A: 96%

Q: How did the Kd [5] turn out when `c1ccc(CNc2ncnc3nc[nH]c23)cc1` [6-BENZYLAMINOPURINE] was run?
A: 62 µM

Q: How did the Kd [5] turn out when `CC(C)=CCNc1ncnc2nc[nH]c12` was run?
A: 35 µM

Q: For `CC(C)=CCNc1ncnc2[nH]cnc12`, which Activity [1] is on record?
A: Active

Q: With `Nc1ncnc2c1ncn2[C@@H]1O[C@H](CO)[C@@H](O)[C@H]1O` [ADENOSINE] as the compound, how does the Kd [5] read?
A: 184 µM

Q: Which results are given for `CNc1ncnc2ccc([N+](=O)[O-])cc12`?
A: Kd [5]: 208 µM; Activity [1]: Active

Q: Which Activity [1] does the source give for `Cc1ccc(Cn2cc(-n3c(-c4ccc(Cn5nc(C)cc5C)o4)n[nH]c3=S)cn2)cc1` here?
A: inactive

Q: With `Cc1ccc(Cn2cc(-n3c(-c4ccc(Cn5cc(Cl)cn5)cc4)n[nH]c3=S)cn2)cc1` as the compound, how does the Activity [1] read?
A: inactive

Q: Which Activity [1] does the source give for `O=S(=O)(c1cccc2cnccc12)N1CCCNCC1` here?
A: Active

Q: Which Activity [1] does the source give for `c1ccc(CNc2ncnc3[nH]cnc23)cc1` here?
A: Active

Q: With `N=C(N)NCCNS(=O)(=O)c1cccc2cnccc12` as the compound, how does the Kd [5] read?
A: 286 µM

Q: And the Activity [1]?
A: Active

Q: How did the Activity [6] turn out when `Cc1nc2[nH]n(-c3ccccc3)c(=O)c2c2c1c(=O)oc1ccc(Br)cc12` was run?
A: 87%

Q: And the Activity (Homo sapiens [7])?
A: 115%

Q: What about the Activity [8] of the same compound?
A: 35%

Q: What about the IC50 (CDK2/Cyclin A2) of the same compound?
A: 2.6 µM

Q: And the Activity [9]?
A: 95%
